# Assay results as given in ChEMBL document CHEMBL3046512, “Flubendiamide, a Novel Insecticide Highly Active against Lepidopterous Insect Pests” (J Pestic Sci, 2005).
# The source made the active and inactive calls. No cut-off for these calls is given here.
# Assays:
# Spodoptera litura [1] = experiment: Insecticidal activity against fifth-instar larvae of Spodoptera litura in cabbage leaf disk after 4 to 7 days by leaf dipping method; format: functional, organism-based
# Plutella xylostella [2] = experiment: Insecticidal activity against third-instar larvae of Plutella xylostella (diamondback moth) in cabbage leaf disk after 4 to 7 days by leaf dipping method; format: functional, organism-based
# Spodoptera litura [3] = experiment: Insecticidal activity against sixth-instar larvae of Spodoptera litura assessed as sustained body contraction at 2.4 ug/larvae after 24 hr; format: functional, organism-based
# Plutella xylostella [4] = experiment: Insecticidal activity against third-instar larvae of synthetic pyrethroid-resistant Plutella xylostella (diamondback moth) in cabbage leaf disk after 4 to 7 days by leaf dipping method; format: functional, organism-based
# Plutella xylostella [5] = experiment: Insecticidal activity against third-instar larvae of benzoylphenylurea-resistant Plutella xylostella (diamondback moth) in cabbage leaf disk after 4 to 7 days by leaf dipping method; format: functional, organism-based
# Plutella xylostella [6] = experiment: Insecticidal activity against third-instar larvae of carbamate-resistant Plutella xylostella (diamondback moth) in cabbage leaf disk after 4 to 7 days by leaf dipping method; format: functional, organism-based
# Aphidoletes aphidimyza = experiment: Toxicity in larvae of Aphidoletes aphidimyza after 2 days by spraying on food and insect method; format: organism-based; conditions: in vivo, 48 h
# Misumenops = experiment: Toxicity in adult of Misumenops tricuspidatus after 4 days by insect dipping method; format: organism-based; conditions: in vivo, 96 h
# [7] = system: Coccinella septempunctata brucki; experiment: Toxicity in adult of Coccinella septempunctata brucki after 4 days by insect dipping method; format: organism-based; conditions: in vivo, 96 h
# Chrysoperla carnea = experiment: Toxicity in larvae of Chrysoperla carnea after 2 days by spraying on food and insect method; format: organism-based; conditions: in vivo, other, 48 h
# Helicoverpa armigera = experiment: Insecticidal activity against Helicoverpa armigera; format: functional, organism-based
# Pieris rapae crucivora = experiment: Insecticidal activity against second to third-instar larvae of Pieris rapae crucivora; format: functional, organism-based
# Adoxophyes honmai = experiment: Insecticidal activity against fourth-instar larvae of Adoxophyes honmai in tea leaf; format: functional, organism-based
# Hellula undalis = experiment: Insecticidal activity against third-instar larvae of Hellula undalis in cabbage leaf; format: functional, organism-based
# Phytoseiulus persimilis = experiment: Toxicity in adult of Phytoseiulus persimilis after 2 days by spraying on food and insect method; format: organism-based; conditions: in vivo, 48 h
# Orius strigicollis = experiment: Toxicity in adult of Orius strigicollis after 2 days by spraying on food and insect method; format: organism-based; conditions: in vivo, 48 h
# Spodoptera litura [8] = experiment: Insecticidal activity against sixth-instar larvae of Spodoptera litura assessed as sustained body contraction at 0.24 ug/larvae after 24 hr; format: functional, organism-based
# Spodoptera litura [9] = experiment: Insecticidal activity against fifth-instar larvae of Spodoptera litura assessed as thickening and shortening without convulsion at 100 mg/l after 24 hr; format: functional, organism-based
# Cotesia glomerata = experiment: Toxicity in adult Cotesia glomerata after 2 days by dry film method; format: organism-based; conditions: in vivo, 48 h
# Spodoptera litura [10] = experiment: Insecticidal activity against fifth-instar larvae of Spodoptera litura assessed as gradual contraction of insect body at 100 mg/l after 24 hr; format: functional, organism-based
# Autographa nigrisigna = experiment: Insecticidal activity against third-instar larvae of Autographa nigrisigna in cabbage leaf; format: functional, organism-based
# Agrotis segetum = experiment: Insecticidal activity against two to third-instar larvae of Agrotis segetum in cabbage leaf; format: functional, organism-based
# Homona magnanima = experiment: Insecticidal activity against fourth-instar larvae of Homona magnanima in tea leaf; format: functional, organism-based
# Pardosa pseudoannulata = experiment: Toxicity in adult of Pardosa pseudoannulata after 4 days by insect dipping method; format: organism-based; conditions: in vivo, 96 h
# Plutella xylostella [11] = experiment: Insecticidal activity against third-instar larvae of insecticide-resistant Plutella xylostella (diamondback moth) in cabbage leaf disk after 4 to 7 days by leaf dipping method; format: functional, organism-based
# Aphidius colemani = experiment: Toxicity in adlult of Aphidius colemani after 2 days by dry film method; format: organism-based; conditions: in vivo, 48 h
# Neoseiulus cucumeris = experiment: Toxicity in adlult of Neoseiulus cucumeris after 2 days by spraying on food and insect method; format: organism-based; conditions: in vivo, 48 h
# Chilo suppressalis = experiment: Insecticidal activity against third-instar larvae of Chilo suppressalis (rice stem borer) […]; format: functional, organism-based
# Encarsia formosa = experiment: Toxicity in adult Encarsia formosa after 2 days by dry film method; format: organism-based; conditions: in vivo, 48 h
# Harmonia axyridis = experiment: Toxicity in adult of Harmonia axyridis after 4 days by insect dipping method; format: organism-based; conditions: in vivo, 96 h
# Plutella xylostella [12] = experiment: Insecticidal activity against third-instar larvae of organophosphate-resistant Plutella xylostella (diamondback moth) in cabbage leaf disk after 4 to 7 days by leaf dipping method; format: functional, organism-based
smiles,measurement,setting,value
Cc1cc(Cl)ccc1NC(=O)c1cccc(I)c1C(=O)NC(C)C,EC50,Spodoptera litura [1],3 mgAi/L
same,EC50,Plutella xylostella [2],0.3 mgAi/L
CC(C)[C@@]1(O)[C@@H](OC(=O)c2cc[nH]c2)[C@@]2(O)[C@]3(C)C[C@@]4(O)O[C@@]5([C@H](O)[C@@H](C)CC[C@]35O)[C@@]2(O)[C@@]41C,Activity,Spodoptera litura [3],Active
Cc1cc(Cl)ccc1NC(=O)c1cccc([N+](=O)[O-])c1C(=O)NC(C)C,EC50,Spodoptera litura [1],10 mgAi/L
same,EC50,Plutella xylostella [2],10 mgAi/L
Cc1cc(Cl)ccc1NC(=O)c1c(Cl)cccc1C(=O)NC(C)C,EC50,Spodoptera litura [1],> 500 mgAi/L
same,EC50,Plutella xylostella [2],10 mgAi/L
Cc1cc(Cl)ccc1NC(=O)c1cc(Cl)ccc1C(=O)NC(C)C,EC50,Spodoptera litura [1],> 500 mgAi/L
same,EC50,Plutella xylostella [2],50 mgAi/L
Cc1cc(C(F)(C(F)(F)F)C(F)(F)F)ccc1NC(=O)c1cccc(I)c1C(=O)NC(C)(C)C,EC50,Spodoptera litura [1],0.3 mgAi/L
same,EC50,Plutella xylostella [2],0.3 mgAi/L
Cc1cc(Cl)ccc1NC(=O)c1ccccc1C(=O)NC(C)C,EC50,Spodoptera litura [1],10 mgAi/L
same,EC50,Plutella xylostella [2],3 mgAi/L
Cc1cc(Cl)ccc1NC(=O)c1ccc(Cl)cc1C(=O)NC(C)C,EC50,Spodoptera litura [1],> 500 mgAi/L
same,EC50,Plutella xylostella [2],5 mgAi/L
Cc1cc(Cl)ccc1NC(=O)c1cccc(Cl)c1C(=O)NC(C)C,EC50,Spodoptera litura [1],10 mgAi/L
same,EC50,Plutella xylostella [2],1 mgAi/L
CC1(C)C(/C=C(\Cl)C(F)(F)F)C1C(=O)OC(C#N)c1cccc(Oc2ccccc2)c1 (stereo unspecified) [CYHALOTHRIN],EC50,Plutella xylostella [4],869 mgAi/L
same,EC50,Plutella xylostella [2],0.24 mgAi/L
O=C(NC(=O)c1c(F)cccc1F)Nc1ccc(Oc2ccc(C(F)(F)F)cc2Cl)cc1F [FLUFENOXURON],EC50,Plutella xylostella [5],233 mgAi/L
same,EC50,Plutella xylostella [2],0.05 mgAi/L
CNC(=O)ON=C(C)SC [METHOMYL],EC50,Plutella xylostella [6],287 mgAi/L
same,EC50,Plutella xylostella [2],14.5 mgAi/L
Cc1cc(C(F)(C(F)(F)F)C(F)(F)F)ccc1NC(=O)c1cccc(I)c1C(=O)NC(C)(C)CS(C)(=O)=O [FLUBENDIAMIDE],EC30,Aphidoletes aphidimyza,> 100 mgAi/L
same,EC30,Misumenops,> 200 mgAi/L
same,EC30,[7],> 200 mgAi/L
same,EC30,Chrysoperla carnea,> 100 mgAi/L
same,Activity,Helicoverpa armigera,Active
same,EC50,Pieris rapae crucivora,0.03 mgAi/L
same,EC50,Adoxophyes honmai,0.38 mgAi/L
same,EC50,Hellula undalis,0.01 mgAi/L
same,EC30,Phytoseiulus persimilis,> 200 mgAi/L
same,EC30,Orius strigicollis,> 100 mgAi/L
same,Activity,Spodoptera litura [8],Active
same,Activity,Spodoptera litura [9],Active
same,EC30,Cotesia glomerata,> 100 mgAi/L
same,Activity,Spodoptera litura [10],Active
same,EC50,Autographa nigrisigna,0.02 mgAi/L
same,EC50,Agrotis segetum,0.18 mgAi/L
same,EC50,Homona magnanima,0.58 mgAi/L
same,EC50,Spodoptera litura [1],0.03 mgAi/L
same,EC30,Pardosa pseudoannulata,> 100 mgAi/L
same,EC50,Plutella xylostella [11],0.002 mgAi/L
same,EC30,Aphidius colemani,> 400 mgAi/L
same,EC30,Neoseiulus cucumeris,> 200 mgAi/L
same,EC50,Plutella xylostella [2],0.001 mgAi/L
same,EC50,Chilo suppressalis,< 0.01 mgAi/L
same,EC30,Encarsia formosa,> 400 mgAi/L
same,EC30,Harmonia axyridis,> 200 mgAi/L
CC(=O)NCC(C)(C)NC(=O)c1c(I)cccc1C(=O)Nc1ccc(C(F)(C(F)(F)F)C(F)(F)F)cc1C,EC50,Spodoptera litura [1],0.1 mgAi/L
Cc1cc(Cl)ccc1NC(=O)c1cccc(Br)c1C(=O)NC(C)C,EC50,Spodoptera litura [1],10 mgAi/L
same,EC50,Plutella xylostella [2],1 mgAi/L
Cc1cc(C(F)(C(F)(F)F)C(F)(F)F)ccc1NC(=O)c1cccc(I)c1C(=O)NC(C)C,EC50,Spodoptera litura [1],0.3 mgAi/L
same,EC50,Plutella xylostella [2],0.1 mgAi/L
Cc1c(Cl)cccc1NC(=O)c1cccc(I)c1C(=O)NC(C)C,EC50,Spodoptera litura [1],10 mgAi/L
same,EC50,Plutella xylostella [2],3 mgAi/L
Cc1cc(OC(F)(F)F)ccc1NC(=O)c1cccc(I)c1C(=O)NC(C)C,EC50,Spodoptera litura [1],1 mgAi/L
same,EC50,Plutella xylostella [2],0.3 mgAi/L
Cc1ccc(Cl)cc1NC(=O)c1cccc(I)c1C(=O)NC(C)C,EC50,Spodoptera litura [1],10 mgAi/L
same,EC50,Plutella xylostella [2],3 mgAi/L
COc1ccc(NC(=O)c2cccc(I)c2C(=O)NC(C)C)c(C)c1,EC50,Spodoptera litura [1],30 mgAi/L
same,EC50,Plutella xylostella [2],10 mgAi/L
Cc1cc(Cl)ccc1NC(=O)c1cccc(F)c1C(=O)NC(C)C,EC50,Spodoptera litura [1],> 500 mgAi/L
same,EC50,Plutella xylostella [2],1 mgAi/L
CCCSP(=S)(OCC)Oc1ccc(Cl)cc1Cl (stereo unspecified) [PROTHIOFOS],EC50,Plutella xylostella [12],24.2 mgAi/L
same,EC50,Plutella xylostella [2],3.78 mgAi/L
